Each molecule was assayed against MBP-fused YpsR (1-179); YpsR-MBP; heading also 'YpeR' (Yersinia pseudotuberculosis, UniProt Q669I5). Settings: read-out: Dissociation constant.
Chain of MBP-fused YpsR (1-179); YpsR-MBP; heading also 'YpeR' (Q669I5 1-179 limits assumed): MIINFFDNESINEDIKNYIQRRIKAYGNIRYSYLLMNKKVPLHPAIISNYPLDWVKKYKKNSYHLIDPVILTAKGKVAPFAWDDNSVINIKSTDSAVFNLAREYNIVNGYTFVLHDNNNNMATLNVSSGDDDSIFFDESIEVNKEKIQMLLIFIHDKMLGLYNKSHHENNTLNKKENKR
In the case of `CCCC(=O)CC(=O)N[C@H]1CCOC1=O` [3OC6], the Kd is reported as 1.3 µM. In the case of `CCCCCCCCCCCC(=O)CC(=O)N[C@H]1CCOC1=O` [3OC14], the Kd is reported as 18.2 µM. `CCCCCC(=O)CC(=O)N[C@H]1CCOC1=O` [3OC8] gave a Kd of 24.2 µM. `CCCCCCCCCC(=O)CC(=O)N[C@H]1CCOC1=O` [3OC12] was tested, and the Kd was 130 µM. Molecule `CCCCCCCCCC(=O)N[C@H]1CCOC1=O` [C10] has a Kd of 21.3 µM. With `CCCCCCCC(=O)N[C@H]1CCOC1=O` [C8] the Kd was 15.6 µM. `CCCCCCCC(=O)CC(=O)N[C@H]1CCOC1=O` [3OC10] showed a Kd of 146 µM. In the case of `CCCCCC(=O)N[C@H]1CCOC1=O` [C6], the Kd is reported as 6.6 µM.

From article PMC11564790 (Synthetic and Systems Biotechnology, 2024)
